Results taken from EP4721767A1 (priority 2023, dated 2024).

Tests used:
Format in all cases: cell-based
[1] = tested on: KB oral epithelial cancer cells; assay: Cell killing activity of camptothecins (CCK-8); settings: killing 4 days
Experimental: (§1) KB oral epithelial cancer cells (purchased from: ATCC) were cultured in DMEM medium supplemented with 10% FBS; NCI-N87 human gastric cancer cells (purchased from: ATCC) were cultured in RPMI1640 medium supplemented with 10% FBS; HT29 human colon cancer cells (purchased from: ATCC) were cultured in RPMI1640 medium supplemented with 10% FBS; and BxPC-3 human pancreatic adenocarcinoma cells (purchased from: ATCC) were cultured in RPMI1640 medium supplemented with 10% FBS.
(§2) Using corresponding media described above and in cell plates, the density of KB cells was adjusted to 2×10^4/mL; the density of NCI-N87 cells was adjusted to 5×10^4/mL; the density of HT29 cells was adjusted to 5×10^4/mL, and the cells were plated onto 96-well transparent flat bottom plates, at 100 µL/well, and cultured overnight; and the density of BxPC-3 cells was adjusted to 5×10^4/mL.
(§3) Samples to be detected were diluted to 20 µM with corresponding media, then 5-fold gradient dilution was performed, and 9 concentrations were obtained. A well having cells but with no any sample added was set as the well showing maximum cell growth; and a well having no cells was set as the well of medium background. The diluted samples were added into the cell plates, at 100 µL/well, which were then incubated in a CO2 incubator for 96 hours. After the incubation, CCK-8 (purchased from: DOJINDO LABORATORIES) prepared beforehand was added into the plates, at 20 µL/well, and after further 3 hours of incubation in the CO2 incubator, OD values at 450 nm were read on a microplate reader.
(§4) Data obtained was fitted to a four-parameter curve using software Prism7, and equation for calculating maximum killing is: maximum killing (%) = 1 - (OD450 value of the well showing maximum killing - OD450 value of the well of medium background) / (OD450 value of the well showing maximum cell growth - OD450 value of the cell of medium background) × 100%. Table 6. Results of comparative study on the activity of camptothecins

[2] = tested on: HT29 human colon cancer cells; assay: Cell killing activity of camptothecins (CCK-8); settings: HT29, killing 4 days
Experimental: as §1, §2, §3, §4

PANC 05.04 = assay: Proliferation-inhibiting effect on tumor cells (SRB / MTT); settings: Homo sapiens; PANC 05.04, 144 hours; read-out: IC50 (nM, mean ± SD)
Experimental: (§5) For cells growing by adherence, SRB assay was used to detect effect of antibody-drug conjugates, antibodies, or camptothecins on the proliferation of tumor cells in vitro cultured. A certain number of cells in exponential growth phase were inoculated in 96-well cell culture plates, and when the cells grew by adherence overnight, antibody drug conjugates, antibodies, or camptothecins of different concentrations were added into the cells. 144 hours of incubation later, the cells were fixed with trichloroacetic acid, and then stained with SRB (prepared in 1% glacial acetic acid at a concentration of 4 mg/mL). 10 mM Tris solution was added into each well to solubilize the bound SRB. OD values at 510 nm were read on a microplate reader. [formula]
(§6) For cells growing in suspension, MTT assay was used to detect effect of antibody-drug conjugates, antibodies, or camptothecins on the proliferation of tumor cells in vitro cultured. A certain number of cells in exponential growth phase were inoculated in 96-well cell culture plates, and when the cells grew in suspension overnight, antibody-drug conjugates, antibodies, or camptothecins of different concentrations were added into the cells. 144 hours of incubation later, MTT was added to each well of the plates, and the incubation was continued for 4 hours at 37 °C in a 5% CO2 saturated humidity incubator. Next, 100 µL of SDS-isobutanol-HCl solution was added into each well of the plates, and OD values at 570 nm and 690 nm were read on a microplate reader.
(§7) Half maximal inhibitory concentration (IC50) was calculated from the inhibition (%) at those different concentrations using the software Graphpad Prism 8.0. The experiment was repeated once and the data was expressed as mean ± SD, and a plot of log(concentration) versus inhibition was generated. Table 10. Results of the proliferation-inhibiting effect of ADCs targeting B7-H3 on different tumor cells

MDA-MB-468 = assay: as above; settings: Homo sapiens; MDA-MB-468, 144 hours; read-out: IC50 (nM, mean ± SD)
Experimental: as §5, §6, §7

Calu-3 = assay: as above; settings: Homo sapiens; Calu-3, 144 hours; read-out: IC50 (nM, mean ± SD)
Experimental: as §5, §6, §7

MDA-MB-231 = assay: as above; settings: Homo sapiens; MDA-MB-231, 144 hours; read-out: IC50 (nM, mean ± SD)
Experimental: as §5, §6, §7

MC38 = assay: as above; settings: Mus musculus, MC-38; MC38, 144 hours; read-out: IC50 (nM, mean ± SD)
Experimental: as §5, §6, §7

SW626 = assay: as above; settings: Homo sapiens; SW626, 144 hours; read-out: IC50 (nM, mean ± SD)
Experimental: as §5, §6, §7

PANC-1 = assay: as above; settings: Homo sapiens; PANC-1, 144 hours; read-out: IC50 (nM, mean ± SD)
Experimental: as §5, §6, §7

MC38/B7H3 = assay: as above; settings: Mus musculus, MC-38; MC38/B7H3, 144 hours; read-out: IC50 (nM, mean ± SD)
Experimental: as §5, §6, §7

ES-2 = assay: as above; settings: Homo sapiens; ES-2, 144 hours; read-out: IC50 (nM, mean ± SD)
Experimental: as §5, §6, §7

BxPC-3 = assay: as above; settings: Homo sapiens; BxPC-3, 144 hours; read-out: IC50 (nM, mean ± SD)
Experimental: as §5, §6, §7

NCI-N87 = assay: as above; settings: Homo sapiens; NCI-N87, 144 hours; read-out: IC50 (nM, mean ± SD)
Experimental: as §5, §6, §7

HCT-116 = assay: as above; settings: Homo sapiens; HCT-116, 144 hours; read-out: IC50 (nM, mean ± SD)
Experimental: as §5, §6, §7

HT-29 = assay: as above; settings: Homo sapiens; HT-29, 144 hours; read-out: IC50 (nM, mean ± SD)
Experimental: as §5, §6, §7

U-87 MG = assay: as above; settings: Homo sapiens, 144 hours, read-out: IC50 (nM, mean ± SD)
Experimental: as §5, §6, §7

Calu-6 = assay: as above; settings: Homo sapiens; Calu-6, 144 hours; read-out: IC50 (nM, mean ± SD)
Experimental: as §5, §6, §7

SK-OV-3 = assay: as above; settings: Homo sapiens; SK-OV-3, 144 hours; read-out: IC50 (nM, mean ± SD)
Experimental: as §5, §6, §7

SMILES: CC[C@@]1(O)C(=O)OCc2c1cc1n(c2=O)Cc2c-1nc1ccc(N)c3c1c2C(F)(F)CC3 [Compound 3]
- EC50 ([1]; 96 h): 7.47 nM
- Maximum Killing (%) [1]: 95.6%
- Maximum Killing (%) [2]: 90.6%
- EC50 ([2]; Homo sapiens, HT-29, 96 h): 6.04 nM
- IC50 (PANC 05.04): 0.35 ± 0.19 nM
- IC50 (MDA-MB-468): 0.21 ± 0.11 nM
- IC50 (Calu-3): 0.44 ± 0.1 nM
- IC50 (MDA-MB-231): 0.59 ± 0.03 nM
- IC50 (MC38): 3.27 ± 0.75 nM
- IC50 (SW626): 3.08 ± 0.63 nM
- IC50 (PANC-1): 0.82 ± 0.16 nM
- IC50 (MC38/B7H3): 4.67 ± 1.98 nM
- IC50 (ES-2): 0.21 ± 0.08 nM
- IC50 (BxPC-3): 0.26 ± 0.09 nM
- IC50 (NCI-N87): 1.26 ± 0.13 nM
- IC50 (HCT-116): 0.3 nM
- IC50 (HT-29): 0.62 nM
- IC50 (U-87 MG): 3.72 ± 0.01 nM
- IC50 (Calu-6): 0.25 ± 0.06 nM
- IC50 (SK-OV-3): 1.05 ± 0.48 nM
